Key:
bovine thymus DNA [1] = test: DNA intercalation analysis by fluorescence intensity on mixing with DNA; format: binding; settings: for intercalation into DNA judged from fluorescence intensity: FIG. 4 and Table 1; for Fluorescence intensity ratio (DNA20/DNA0): compound 10 μg/mL in 0.1 M Tris-HCl pH 7.5, DNA 20 μg/mL versus 0 μg/mL
Procedure: Since the fluorescence intensity was improved due to intercalation of the compound between base pairs of DNA, the fluorescence intensity was measured by mixing DNA and the compound. First, the compounds shown in Table 1 were dissolved in a 0.1 M Tris-HCl buffer solution (pH 7.5) at 10 μg/mL, and bovine thymus DNA was added thereto at 0 μg/mL, 5 μg/mL, 10 μg/mL or 20 μg/mL to prepare measurement samples. Then, the fluorescence intensity of each measurement sample was measured (excitation wavelength 355 to 536 nm, fluorescence wavelength of 420 to 605 nm). In Table 1, the fluorescence intensity ratio is a ratio (DNA20/DNA0) of the fluorescence intensity (DNA20) when the DNA concentration was 20 μg/mL and the fluorescence intensity (DNA0) when the DNA concentration was 0 μg/mL.

bovine thymus DNA [2] = test: DNA intercalation analysis by shift of absorption wavelength (bathochromic effect); format: binding; settings: for Absorption wavelength difference: DNA 30 μg/mL versus 0 μg/mL; for intercalation into DNA judged from absorption wavelength shift: Table 2; for DNA0: Absorption wavelength when DNA concentration was 0 μg/mL / DNA30: Absorption wavelength when DNA concentration was 30 μg/mL: compound 10 μg/mL in 0.1 M Tris-HCl, peak top wavelength
Procedure: In addition, since the absorption spectrum shifted to the long wavelength side due to intercalation of the compound between base pairs of DNA (bathochromic effect), the shift of the absorption wavelength was measured by mixing DNA and the compound. Specifically, the compounds shown in Table 2 were dissolved in a 0.1 M Tris-HCl buffer solution at 10 μg/mL, and bovine thymus DNA was added thereto at 0 μg/mL or 30 μg/mL to prepare measurement samples. Then, the absorption spectrum of each measurement sample was measured, and the absorption wavelength (peak top wavelength) was determined.

[3] = Quantum yield and molar absorption coefficient (Table 1); format: physicochemical
[4] = test system: reactive oxygen species in the brain (right striatum); test: Brain fluorescence imaging in SNP model rats; format: in vivo, rat; settings: 5 mg/kg i.v. bolus, brain extracted 1 hour after administration, compared to DHE, FIG. 5
Procedure: 4 μL of a 20 nmol/μL SNP solution (phosphate buffered saline (PBS) solution) was injected into the right striatum of the rat at a rate of 0.8 μL/min using a Hamilton syringe (26 gauge). 4 μL of PBS was injected into the left striatum in the same method. A bolus of 5 mg/kg DHE or isopropyl reduced component was administered from the caudal vein of the rat 60 minutes after SNP administration for SNP-administered rats (SNP model rats). The brain was extracted 1 hour after administration and a 20 μm-thick frozen section was prepared. Brain fluorescence images were obtained by a scanner type image analysis device (FLA700: excitation wavelength of 532 nm, filter 580 nm).

[5] = test system: reactive oxygen species in the brain (right striatum); test: PET measurement of probe accumulation in SNP model rats; format: in vivo, rat; settings: for ratio of radioactivity accumulated amount (SUV) between right striatum (SNP) and left striatum (control): 20 MBq i.v. bolus, 30-45 minutes after administration, FIGS. 2(E) and 2(F)
Procedure: Accumulation of [^18F]FHM, [^18F]FPHM and [^11C]HM was analyzed using rats in which reactive oxygen species were produced in the brain (right striatum) to which sodium nitroprusside (SNP) has been administered.
While rats were anesthetized with 1.5-2.0% isoflurane (dilution gas:oxygen), 4 μL of a 20 nmol/μL SNP solution (saline) was injected into the right striatum of the rat at a rate of 0.8 μL/min using a Hamilton syringe (26 gauge). 4 μL of a saline was injected into the left striatum in the same method. PET measurement was performed on SNP-administered rats (SNP model rats) 60 minutes after SNP administration.
After transmission measurement was performed for 15 minutes for absorption correction, a bolus of 20 MBq [^18F]FHM, [^18F]FPHM or [^11C]HM was administered from the caudal vein of the rat, and emission measurement was performed for 90 minutes. After PET measurement was completed, the PET accumulation images of the brain 0-15 minutes, 15-30 minutes, 30-45 minutes, 45-60 minutes, 60-75 minutes, and 75-90 minutes after [^18F]FHM, [^18F]FPHM or [^11C]HM was administered were superimposed on the brain CT images. Regions of interest were set on the PET images of the right striatum and the left striatum identified from the X-CT images, and the value normalized according to the body weight of each individual subject and the administered radioactivity amount was used as the amount of [^18F]FHM, […] or […] accumulated at each site (radioactivity accumulated amount (SUV)) (each group, 5 rats).
In addition, as a control, PET measurement was performed on rats in which only a saline was administered to both the right striatum and the left striatum (control rat) in the same method as above.

Structure (SMILES) | intercalation into DNA judged from fluorescence intensity (bovine thymus DNA [1]) | Fluorescence intensity ratio (DNA20/DNA0) (bovine thymus DNA [1]) | Absorption wavelength difference (bovine thymus DNA [2]) [nm] | intercalation into DNA judged from absorption wavelength shift (bovine thymus DNA [2]) | DNA0: Absorption wavelength when DNA concentration was 0 μg/mL (bovine thymus DNA [2]) [nm] | DNA30: Absorption wavelength when DNA concentration was 30 μg/mL (bovine thymus DNA [2]) [nm] | ε · ϕ (molar absorption coefficient x quantum yield) [3] | ϕ: quantum yield [3] | accumulation in the right striatum to which SNP has been administered (brain fluorescence images) [4] | ratio of radioactivity accumulated amount (SUV) between right striatum (SNP) and left striatum (control) [5] | radioactivity accumulated amount in the right striatum, comparison of probes ([5]; FIGS. 2(A) and 2(B))
CN1c2cc(NC3CCC3)ccc2-c2ccc(NC3CCC3)cc2C1c1ccccc1 (stereo not drawn) [Cyclobutyl form] | almost no intercalation into DNA occurred | 1.62 | 18 | almost no intercalation into DNA occurred | 557 | 575 | 47.04 | 3.62 10^−3 |  |  | 
C[n+]1c(-c2ccccc2)c2cc(N)ccc2c2ccc(N)cc21 [Methidium, reference compound] | intercalation into DNA occurred | 3.03 | 40 | intercalation into DNA occurred | 481 | 521 | 97.34 | 2.68 10^−3 |  |  | 
CC(C)Nc1ccc2c(c1)C(c1ccc(F)cc1)N(C)c1cc(NC(C)C)ccc1-2 (stereo not drawn) [isopropyl reduced component] |  |  |  |  |  |  |  |  | a large amount of accumulation in the right striatum |  | 
CN1c2cc(N)ccc2-c2ccc(N)cc2C1c1ccc([18F])cc1 (stereo not drawn) [[^18F]FHM] |  |  |  |  |  |  |  |  |  | about 5 times | larger in [^18F]FHM than in [^11C]HM
[11CH3]N1c2cc(N)ccc2-c2ccc(N)cc2C1c1ccccc1 (stereo not drawn) [[^11C]HM, reference compound] |  |  |  |  |  |  |  |  |  | about 3 times | 
CC(C)N(c1ccc2c(c1)C(c1ccccc1)N(C)c1cc(N(C(C)C)C(C)C)ccc1-2)C(C)C (stereo not drawn) [Di-isopropyl form] | almost no intercalation into DNA occurred | 0.759 | 4 | almost no intercalation into DNA occurred | 559 | 563 | 118.8 | 8.48 10^−3 |  |  | 
CC(C)Nc1ccc2c(c1)C(c1ccccc1)N(C)c1cc(NC(C)C)ccc1-2 (stereo not drawn) [Isopropyl form] | almost no intercalation into DNA occurred | 0.996 | 8 | almost no intercalation into DNA occurred | 517 | 525 | 568.8 | 40.6 10^−3 |  |  | 
